Experimental data from patent publication US6906073B2, “Piperazine CCR-3 receptor antagonists” (Roche Palo Alto LLC, priority 2001, dated 2005).
Where a name gives a salt, the structure may show the parent alone.

Key:
CCR-3 receptor = target: T1, CCR-3 receptor (Homo sapiens, UniProt P51677); assay: CCR-3 Receptor Binding Assay - In Vitro (inhibition of 125I eotaxin binding to CCR-3 L1.2 transfectant cells); conditions: inhibition of binding of 125I eotaxin to CCR-3 L1.2 transfectant cells, 1 hour at room temperature
T1 construct: expressed in transfected cells; host or cells: L1.2 (murine pre-B lymphoma line)
T1 sequence (P51677 1-355): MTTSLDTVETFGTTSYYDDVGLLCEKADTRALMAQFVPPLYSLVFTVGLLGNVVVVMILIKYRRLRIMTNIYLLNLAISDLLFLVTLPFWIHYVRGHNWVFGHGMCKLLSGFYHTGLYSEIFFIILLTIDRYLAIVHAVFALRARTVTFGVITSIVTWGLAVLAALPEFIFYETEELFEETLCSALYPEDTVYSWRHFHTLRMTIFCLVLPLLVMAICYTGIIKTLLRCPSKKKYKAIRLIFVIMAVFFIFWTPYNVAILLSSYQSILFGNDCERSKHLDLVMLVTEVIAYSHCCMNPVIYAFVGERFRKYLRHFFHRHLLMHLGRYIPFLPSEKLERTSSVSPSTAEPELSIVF
Experimental: CCR-3 Receptor Binding Assay—In Vitro
The CCR-3 antagonistic activity of the compounds of the invention was determined by their ability to inhibit the binding of ^125I eotaxin to CCR-3 L1.2 transfectant cells (see Ponath, P. D. et al., J. Exp. Med., Vol. 183, 2437-2448, (1996)).
The assay was performed in Costar 96-well polypropylene round bottom plates. Test compounds were dissolved in DMSO and then diluted with binding buffer (50 mM HEPES, 1 mM CaCl2, 5 mM MgCl2, 0.5% bovine serum albumin (BSA), 0.02% sodium azide, pH 7.24) such that the final DMSO concentration was 2%. 25 μl of the test solution or only buffer with DMSO (control samples) was added to each well, followed by the addition of 25 μl of ^125I-eotaxin ([…]) (NEX314, New England Nuclear, Boston, Mass.) and 1.5×10^5 of the CCR-3 L1.2 transfected cells in 25 μl binding buffer. The final reaction volume was 75 μl.
After incubating the reaction mixture for 1 hour at room temperature, the reaction was terminated by filtering the reaction mixture through polyethylenimine treated Packard Unifilter GF/C filter plate (Packard, Chicago, Ill.). The filters were washed four times with ice cold wash buffer containing 10 mm HEPES and 0.5M sodium chloride (pH 7.2) and dried at 65° C. for approximately 10 minutes. 25 μl/well of Microscint-20® scintillation fluid (Packard) was added and the radioactivity retained on the filters was determined by using the Packard TopCount®

| SMILES | melting point | IC50 (CCR-3 receptor) |
| --- | --- | --- |
| COc1cc(NC(=O)N[C@@H]2COC[C@H]2N2CCN(Cc3ccc(Cl)cc3)CC2)cc(OC)c1OC (racemic) (as salt: hydrochloride) [compound 7, (±)-trans-1-{4-[4-(4-chlorobenzyl)-piperazin-1-yl]-tetrahydrofuran-3-yl}-3-(3,4,5-trimethoxyphenyl)urea dihydrochloride] | 190.8 to 204.3 °C | – |
| COc1cc(NC(=O)N[C@@H]2COC[C@H]2N2CCN(Cc3ccc(Cl)cc3)CC2)cc(OC)c1OC (racemic) [compound 7, (±)-trans-1-{4-[4-(4-chlorobenzyl)-piperazin-1-yl]-tetrahydrofuran-3-yl}-3-(3,4,5-trimethoxyphenyl)urea dihydrochloride] | – | 0.11 µM |
| O=C(Cc1cccs1)Nc1ccccc1N1CCN(Cc2ccc(Cl)c(Cl)c2)CC1 [compound 1, N-{2-[4-(3,4-dichloro-benzyl)-piperazin-1-yl]-phenyl}-2-thiophen-2-yl-acetamide] | – | 200 µM |
| Cc1ccc(C(=O)NC2CCCCC2N2CCN(Cc3ccc(Cl)c(Cl)c3)CC2)cc1 (centres unmarked) [compound 3, N-{2-[4-(3,4-Dichloro-benzyl)-piperazin-1-yl]-cyclohexyl}-4-methyl-benzamide] | – | 12.8 µM |
| O=C(Nc1ccccc1N1CCN(Cc2ccc(Cl)c(Cl)c2)CC1)c1ccc(F)c(F)c1 [compound 2, N-{2-[4-(3,4-dichlorobenzyl)-piperazin-1-yl]-phenyl}-3,4-difluoro-benzamide] | – | 36 µM |
